Reference: patent US20250049774A1, “Crystalline Forms of Apalutamide” (Apotex Inc., priority 2021, published 2025)

Assays:
[1] = Intrinsic dissolution rate (IDR), Wood's apparatus; format: physicochemical; conditions: 900 ml distilled water, 37° C., 50 rpm; approx. 200 mg compressed at 1.5 metric tons for 1 minute
Experimental: Intrinsic dissolution rate (IDR) measurements were performed using a Wood's apparatus. Samples were prepared by compressing an amount (approximately 200 mg) of sample at 1.5 metric tons for 1 minute. A dissolution medium consisting of 900 ml distilled water maintained at 37° C., and rotation speed of 50 rpm, was used for each experiment.

[2] = drug substance, as described in CHMP Assessment Report; cited from earlier work
[3] = drug substance, as described in CHMP Assessment Report; cited from earlier work; remark: listed apart in the source

In the case of CNC(=O)c1ccc(N2C(=S)N(c3cnc(C#N)c(C(F)(F)F)c3)C(=O)C23CCC3)cc1F [Apalutamide Amorphous Form], the “Intrinsic Dissolution Rate” value [1] is reported as 0.0085 mg min^−1 cm^−2.

In the case of CNC(=O)c1ccc(N2C(=S)N(c3cnc(C#N)c(C(F)(F)F)c3)C(=O)C23CCC3)cc1F [Apalutamide Form B], the “Intrinsic Dissolution Rate” value [1] is reported as 0.0065 mg min^−1 cm^−2.

For CNC(=O)c1ccc(N2C(=S)N(c3cnc(C#N)c(C(F)(F)F)c3)C(=O)C23CCC3)cc1F [apalutamide, (4-[7-(6-cyano-5-trifluoromethylpyridin-3-yl)-8-oxo-6-thioxo-5,7-diazaspiro[3.4]oct-5-yl]-2-fluoro-N-methylbenzamide)], the “Biopharmaceutics Classification System (BCS) class” value [2] is listed as “Class II”, the aqueous solubility [2] is listed as “low, pH-independent” and the permeability [3] is listed as “high”.
